How the values were obtained:
[1] = design: method as in PMID 22158590; details: compound from Cordia sinensis, versus BHA; cited from earlier work
[2] = ABTS+ radical scavenging test; type: biochemical; details: for Inhibition Rate (%): ABTS^+ inhibition, Concentration 250 μM
Protocol: The ABTS^+ radical scavenging test was conducted as reported previously, and was slightly modified. Specifically, the solvent was replaced with DMSO due to the high volatility of 80% methanol. Trolox was used as positive control. The scavenging activities of phenolic compounds 3, 4, and 10–17 were calculated based on the percentage of ABTS^+ radical scavenged using the equation:Inhibition rate (%) = (A blank − A sample)/A blank
IC50 values were calculated according to the Reed and Muench method.

ECA109 = test system: ECA109; design: method as in doi:10.1016/j.tetlet.2013.06.082; details: compound isolated from Phyllanthus flexuosus; cited from earlier work
Hela cells = test system: Hela cells; design: method as in doi:10.1016/j.tet.2021.132224; details: compounds derived from Phyllanthus acidus; cited from earlier work
A549 = test system: A549; design: method as in doi:10.1016/j.tet.2021.132224; details: compounds derived from Phyllanthus acidus; cited from earlier work
HONE = test system: HONE; design: method as in doi:10.1016/j.tet.2021.132224; details: compounds derived from Phyllanthus acidus; cited from earlier work
five tumor cell lines = test system: five tumor cell lines; design: method as in PMID 17315965; details: 40 μM; compound from Aspidopterys obcordate; cited from earlier work
[3] = compound from Liriope muscari and Senecio scandens, versus Vitamin C; cited from earlier work

| Structure (SMILES) | IC50 ([2]; ABTS^+ radical scavenging) [µM] | IC50 ([2]; Table S1, ABTS+ inhibition) [µM] | Inhibition Rate (%) [2] [%] | also measured |
| --- | --- | --- | --- | --- |
| COc1cc(CCCOC(C)=O)cc2c1O[C@@H](c1ccc(O)cc1)[C@@H]2CO [Compound 3, 3-[(2R,3S)-2-(4-hydroxyphenyl)-3-(hydroxymethyl)-7-methoxy-2,3-dihydro-1-benzofuran-5-yl]propyl acetate] |  |  | 31.16 ± 0.38 |  |
| C=Cc1c(C)c(O)cc2c1CC[C@@H]1C(C)(C)[C@H](O)[C@H](O)C[C@@]21C [Compound 6, cleistanthol] |  |  |  | cytotoxic activity against ECA109 (ECA109): weak cytotoxic activity; cytotoxic activity against Hela cells (Hela cells): weaker cytotoxic activity; cytotoxic activity against A549 (A549): weaker cytotoxic activity; cytotoxic activity against HONE (HONE): weaker cytotoxic activity |
| C=Cc1c(C)c(O)cc2c1CC[C@@H]1C(C)(C)[C@H](O)CC[C@@]21C [Compound 7, spruceanol] |  |  |  | cytotoxic activity against Hela cells (Hela cells): weaker cytotoxic activity; cytotoxic activity against A549 (A549): weaker cytotoxic activity; cytotoxic activity against HONE (HONE): weaker cytotoxic activity |
| CC(=O)OCCCc1ccc2c(c1)[C@H](CO)[C@@H](c1ccc(O)cc1)O2 [Compound 4, 3-[(2S,3R)-2-(4-hydroxyphenyl)-3-(hydroxymethyl)-2,3-dihydro-1-benzofuran-5-yl] propyl acetate] |  |  | 23.71 ± 0.37 |  |
| C=Cc1c(C)c(O)cc2c1CC[C@@H]1C(C)(C)[C@H](O)C(=O)C[C@@]21C [Compound 5, aspidoptoid D] |  |  |  | cytotoxic activity against five tumor cell lines (five tumor cell lines): no significant cytotoxic activity |
| Cc1c(C)c2c(c(C)c1O)CCC(C)(C(=O)O)O2 (stereo not drawn) [Trolox, reference compound] | 176 ± 2.1 | 176 ± 2.07 | 57.26 ± 1.38 |  |

More lines, main results first:

| IC50 ([2]; ABTS^+ radical scavenging) [µM] | IC50 ([2]; Table S1, ABTS+ inhibition) [µM] | Structure (SMILES) | Inhibition Rate (%) [2] [%] | also measured |
| --- | --- | --- | --- | --- |
| 232.9 ± 1.9 | 233 ± 1.92 | O=C(O)/C=C/c1ccc(O)c(O)c1 [Compound 15, trans-caffeic acid] | 49.40 ± 0.72 | DPPH radical scavenging activity [1]: better DPPH radical scavenging activity than BHA |
| 387 ± 8 | 387 ± 8.03 | COc1cc([C@H]2OC[C@@H]3[C@H]2CO[C@H]3c2ccc(O)c(OC)c2)ccc1O [Compound 12, (+) epipinoresinol] | 49.51 ± 1.60 |  |
| 348 ± 12.2 | 348 ± 12.2 | COc1cc([C@H]2Oc3c(OC)cc(CCCOC(C)=O)cc3[C@@H]2CO)ccc1O [Compound 10, 3-[(2S,3R)-2-(4-hydroxy-3-methoxyphenyl)-3-(hydroxymethyl)-7-methoxy-2,3-dihydro-1-benzofuran-5-yl]propyl acetate] | 46.46 ± 0.83 |  |
| 204 ± 4.7 | 204 ± 4.66 | COc1cc([C@@H]2OC[C@H]3[C@@H]2CO[C@H]3c2ccc(O)c(OC)c2)ccc1O [Compound 13, (-)-pinoresinol] | 60.12 ± 0.19 | antioxidant activities [3]: comparable to that of Vitamin C |
| 362 ± 8.4 | 362 ± 8.39 | COc1cc(C(O)C(CO)Oc2ccc(CCCOC3OC(CO)C(O)C(O)C3O)cc2OC)ccc1O [Compound 14, 4,7,9-trihydroxy-3,3′-dimethoxy-8-O-4′-neolignan-9′-O-β-D-glucopyranoside] | 39.02 ± 1.35 |  |

— paper PMC11816990, “New Terpenoids and Lignans from Phyllanthus acidus Fruits with Antioxidant Activity” (Foods, 2025)
